The subject of assay [1] is high fat diet and Streptozotocin (stz) induced insulin resistance in rats. Kind of assay: Fasting blood glucose levels in high fat diet + STZ rats. It is filed as in vivo, Albino Wistar rats. The protocol: (§1) Evaluation of antidiabetic effect of herbal formulation against high fat diet and Streptozotocin (stz) induced insulin resistance in rats.
(§2) Rats were divided 5 into groups of 8 rats each and treated in the following way:
Group I Normal control group—Received normal chow diet and drinking water daily for 45 days and citrate buffer (1 mL/kg, i.p) on the 15th day of start of experiment.
Group II Toxicant Control: Received HFD throughout the experiment (45 days) and STZ (40 mg/kg, i.p) on the 15th day of start of experiment.
(§3) Group III Herbal formulation I as per Example 4 (500 mg): Received HFD throughout the experiment (45 days), STZ (40 mg/kg, i.p) on the 15th day of start of experiment and the Herbal formulation (500 mg/kg, p.o) from the 18th day for the next 28 days.
(§4) Group IV Herbal formulation II as per Example 4 (1000 mg): Received HFD throughout the experiment (45 days), STZ (40 mg/kg, i.p) on the 15th day of start of experiment and the Herbal formulation (1000 mg/kg, p.o) from the 18th day for the next 28 days.
(§5) Group V Reference standard: Receive HFD throughout the experiment (45 days), STZ (40 mg/kg, i.p) on the 15th day of start of experiment and Metformin, (120 mg/kg) from the 18th day for the next 28 days.
(§6) The rats were allocated into dietary regimens by feeding HFD (58% fat, 25% protein and 17% carbohydrate, as a percentage of total kcal) and drinking water ad libitum, respectively, for the initial period of 2 weeks. After 2 weeks of dietary manipulation, the group of rats fed with HFD were injected a single low dose of STZ (40 mg/kg, i.p), while the Normal control rats were given the vehicle citrate buffer (pH 4.4) in a dose volume of 1 mL/kg, i.p. The fasting blood glucose (FBG) were measured 3 days after the STZ injection. The rats with FBG of more than 250 mg/dL were considered diabetic and selected for further pharmacological studies and their dosing with the Herbal formulations commenced and continued for the next 28 days. The rats were allowed to continue to feed on their respective diets until the end of the study. All FBG and insulin levels were determined on different days viz. 18th day (3rd day after STZ injection), 25th, 32nd, 39th and 45th days (24 h after the previous dose) by collecting blood from the tail vein/retro orbital plexus. On the 44th day Oral Glucose Tolerance Test (OGTT) was performed wherein animals of all groups received glucose solution (1.5 g/kg) 30 minutes after the above treatments. Blood glucose and insulin levels were determined at 0, 30, 60, 90, 120 min after glucose administration. Blood glucose levels were measured using a digital glucometer. Insulin was assayed by using a RIA kit.
(§7) √—Correction of the nonlinear values distribution. • A. Animals used: 40 • B. Species/Common name: Albino Wistar rats • C. Age/weight/size: Ten weeks, 150-180 g • D. Gender: Male • E. Number to be used (Year-wise breakups and total figures needed to be given): 40 • F. Number of days each animal will be housed: 3 months • G. Details of injections schedule: • H. Details of withdrawal: • Volumes: 2 mL per animal by retro-orbital plexus for insulin assay and 0.1 mL by tail vein for blood glucose. • I. Sites: Retro-orbital plexus, tail vein

Assay [2] has the same test system. Kind of assay: Oral glucose tolerance test (OGTT) on day 44 in high fat diet + STZ rats. It is filed as in vivo, Albino Wistar rats. Particulars: Metformin 120 mg/kg p.o., HFD+STZ rats. The method, then: as §1, §3, §4, §5, §6, §7
The test system is the same in assay [3]. The experiment in a line: Matsuda index from OGTT in high fat diet + STZ rats. It is filed as in vivo, Albino Wistar rats. Particulars: Metformin 120 mg/kg p.o., HFD+STZ rats, value less than 4.3 indicates insulin resistance. The protocol:
as §6, with “After” for “The rats were allocated into dietary regimens by feeding HFD (58% fat, 25% protein and 17% carbohydrate, as a percentage of total kcal) and drinking water ad libitum, respectively, for the initial period of 2 weeks. After”, “The rats with FBG of more than 250 mg/dL were considered diabetic and selected for further pharmacological studies and their dosing with the Herbal formulations commenced and continued for the next 28 days.” left out

The test system is the same in assay [4]. Kind of assay: QUICKI insulin sensitivity index in high fat diet + STZ rats. Particulars: HFD+STZ rats. It is filed as in vivo, Albino Wistar rats. The protocol: as §6
Quantitative insulin sensitivity check index (QUICKI) is an empirically-derived mathematical transformation of fasting blood glucose and plasma insulin concentrations that provide a consistent and precise ISI with a better positive predictive power. It is simply a variation of HOMA equations, as it transforms the data by taking both the logarithm and the reciprocal of the glucose-insulin product, thus slightly skewing the distribution of fasting insulin values. […] It employs the use of fasting values of insulin and glucose as in HOMA calculations. QUICKI is virtually identical to the simple equation form of the HOMA model in all aspects, except that a log transform of the insulin glucose product is employed to calculate QUICKI. The QUICKI can be determined from fasting plasma glucose (mg/dl) and insulin (μIU/ml) concentrations.
QUICKI values range between 0.45 in healthy individuals (noted as unusually healthy in the original study) and 0.30 in diabetics. Lower values reflect greater resistance with values below 0.339 indicating insulin resistance.

The test system is the same in assay [5]. Kind of assay: Insulin levels in high fat diet + STZ rats (RIA). It is filed as in vivo, Albino Wistar rats. Particulars: HFD+STZ rats. The protocol: as §1, §2, §3, §4, §5, §6, §7
The test system is the same in assay [6]. The experiment in a line: HOMA-IR insulin resistance index in high fat diet + STZ rats. It is filed as in vivo, Albino Wistar rats. Particulars: HFD+STZ rats. The method, then:
as §6, with “After” for “The rats were allocated into dietary regimens by feeding HFD (58% fat, 25% protein and 17% carbohydrate, as a percentage of total kcal) and drinking water ad libitum, respectively, for the initial period of 2 weeks. After”, “The rats with FBG of more than 250 mg/dL were considered diabetic and selected for further pharmacological studies and their dosing with the Herbal formulations commenced and continued for the next 28 days.” left out
Insulin resistance is calculated using the following methods: […]
HOMA is a model of the relationship of glucose and insulin dynamics that predicts fasting steady-state glucose and insulin concentrations for a wide range of possible combinations of insulin resistance and β-cell function. Insulin levels depend on the pancreatic β-cell response to glucose concentrations while, glucose concentrations are regulated by insulin-mediated glucose production via the liver. Thus, deficient β-cell function will echo a diminished response of β-cell to glucose-stimulated insulin secretion. Similarly, insulin resistance is reflected by the diminished suppressive effect of insulin on hepatic glucose production. […] HOMA describes this glucose-insulin homeostasis by means of a set of simple, mathematically-derived nonlinear equations. The approximating equation for insulin resistance has been simplified; it uses a fasting blood sample. It is derived from the use of the insulin-glucose product, divided by a constant.
The product of FPG×FPI is an index of hepatic insulin resistance.
I0—Fasting plasma insulin concentration (mIU/L), G0—Fasting plasma glucose concentration (mg/dL),

Another assay has as its system PPAR gamma. The experiment in a line: PPAR gamma gene expression by Real Time PCR in differentiated 3T3L1 adipocytes. It is filed as cell-based. Particulars: SC = Pioglitazone 6 μg/ml, 12th day, control = 1. A general note: In qPCR the cycle at which signal appears reflects the starting amount.
Setting [7] is: Metformin 120 mg/kg p.o. group, Day 18 (start of treatment).
The mark [8] stands for this setting: Metformin 120 mg/kg p.o., Day 25.
Where [9] appears, read: Metformin 120 mg/kg p.o., Day 32.
[10] abbreviates: Metformin 120 mg/kg p.o., Day 39.
Where [11] appears, read: Metformin 120 mg/kg p.o., Day 45.

Each structure is given as a SMILES string.

Protocol for PPAR gamma: Samples of Herbal formulation were evaluated over a concentration range from 0.5 to 10 μg/ml. Pioglitazone, a known anti-diabetic agent was used as the standard control at a dose of 6 μg/ml; a dose extrapolated from the median therapeutic human dose. The Herbal formulation was dissolved in NAOH (0.1N).
Viability studies were carried out to eliminate cytotoxic concentrations of the samples using MTT assay. Based on the results of the MTT assay, the following concentrations were used for the PPAR Expression studies. Concentration selected was as follows 2.5, 5, 10 μg/ml.
3T3L1 Fibroblasts were grown in DMEM medium, supplemented with 10% FBS, in a humidified atmosphere of 5% CO2 at 370 C. […]
On the 12th day after differentiation, total RNA was extracted with TRIzol reagent according to the manufacturer's instructions from the differentiated adipocytes. The concentration and purity of RNA were determined by measuring the absorbance at 260 nm (A260) and the ratio of the absorbance at 260 nm to the absorbance at 280 nm (A260/A280), respectively. […] SYBR Green chemistry was used to perform the quantitative determination of the relative expression of PPAR gene. The PPAR gene was analyzed using the Rotogene Q; Qiagen real-time polymerase chain reaction machine. […]

In the case of `CN(C)C(=N)N=C(N)N` [Metformin], in assay [1] (HFD+STZ rats), the “course of BGL over 4 weeks of treatment (in words)” value is “gradual decrease in BGL”. Also, the Blood glucose level in assay [1] (Metformin 120 mg/kg p.o. group, HFD+STZ rats, Day 1 (before treatment, dosing from day 18)) was 126.87 ± 2.41 mg/dL; in assay [1] (Metformin 120 mg/kg p.o. group, HFD+STZ rats, Day 7 (before treatment)) it was 138.63 ± 1.54 mg/dL; in assay [1] (Metformin 120 mg/kg p.o. group, HFD+STZ rats, Day 15 (before treatment)), 156.37 ± 3.17 mg/dL; in assay [1] (Metformin 120 mg/kg p.o. group, HFD+STZ rats, Day 18 (3rd day after STZ, start of treatment)), 396.67 ± 43.72 mg/dL; in assay [1] (Metformin 120 mg/kg p.o., HFD+STZ rats, Day 25), 183.167 ± 13.58 mg/dL; in assay [1] (Metformin 120 mg/kg p.o., HFD+STZ rats, Day 32), 245.167 ± 28.86 mg/dL. In addition, the Blood glucose level in assay [1] (Metformin 120 mg/kg p.o., HFD+STZ rats, Day 39) is recorded as 191.83 ± 25.08 mg/dL; in assay [1] (Metformin 120 mg/kg p.o., HFD+STZ rats, Day 45), 152.83 ± 8.40 mg/dL. The “BGL at the end of the study compared with the HFD+STZ group (in words)” value in assay [1] (treatment groups) is reported as “significantly lower”. In addition, the “OGTT Glucose” value in assay [2] (0 Min after glucose 1.5 g/kg) is 129.5 ± 1.17 mg/dL; in assay [2] (30 Min after glucose 1.5 g/kg), 249.50 ± 0.56 mg/dL; in assay [2] (90 Min after glucose 1.5 g/kg), 185.167 ± 2.08 mg/dL; in assay [2] (120 Min after glucose 1.5 g/kg), 149.83 ± 2.81 mg/dL. The “OGTT Insulin” value came to 13.12 ± 0.97 mIU/L in assay [2] (0 Min after glucose 1.5 g/kg), 27.308 ± 1.4 mIU/L in assay [2] (30 Min after glucose 1.5 g/kg), 22.72 ± 1.49 mIU/L in assay [2] (90 Min after glucose 1.5 g/kg) and 14.95 ± 1.035 mIU/L in assay [2] (120 Min after glucose 1.5 g/kg). For the same compound, in assay [3], the “Matsuda Index” value came out at 12.56. The QUICKI in assay [4] (setting [7]) is 0.24 ± 0.0057; in assay [4] (setting [8]), 0.276 ± 0.0021; in assay [4] (setting [9]) it was 0.26 ± 0.0042; in assay [4] (setting [10]), 0.27 ± 0.0055; in assay [4] (setting [11]), 0.29 ± 0.0030. Also, the Insulin level is 31.56 ± 1.95 mIU/L in assay [5] (Metformin 120 mg/kg p.o. group, date printed as "—" (first reading)); 22.56 ± 2.24 mIU/L in assay [5] (setting [8]); 27.84 ± 5.014 mIU/L in assay [5] (setting [9]); 23.40 ± 3.47 mIU/L in assay [5] (setting [10]); 15.36 ± 0.58 mIU/L in assay [5] (setting [11]). Also, the HOMA-IR worked out at 31.7 ± 4.75 in assay [6] (setting [7]); 9.91 ± 0.69 in assay [6] (setting [8]); 15.8 ± 2.76 in assay [6] (setting [9]); 10.56 ± 1.7 in assay [6] (setting [10]); 5.81 ± 0.39 in assay [6] (setting [11]).

On to `CCc1ccc(CCOc2ccc(CC3SC(=O)NC3=O)cc2)nc1` (centres unmarked) [Pioglitazone], for which the “2^-DDCT (relative PPAR gamma mRNA expression)” value with PPAR gamma is reported as 2.292.

The values above are taken from US20210015883A1, “A NOVEL SYNERGIC HERBAL FORMULATION FOR THE PREVENTION AND TREATMENT OF PRE-DIABETES, DIABETES AND OTHER INSULIN RESISTANCE CASES” (priority 2018, published 2021).
